Results: patent US20250275995A1, “NICOTINAMIDE RIBOSIDE DOSAGE REGIMEN FOR TREATING PARKINSON'S DISEASE” (VESTLANDETS INNOVASJONSSELSKAP AS (VIS), priority 2022, published 2025)

Experiments:
[1] = tested on: brain NAD levels; test: NAD-brain pharmacokinetic study: brain NAD by 31P-MRS; format: in vivo, human; details: 1200 mg daily for 8 days
Experimental: • At screening, participants are assessed for eligibility, inclusion/exclusion criteria, medical history and concomitant medication is recorded, and informed consent signed. • The NAD-brain study performs a parallel assessment of NAD replenishment therapy pharmacokinetics in the blood and brain of healthy human subjects and subjects with Parkinson's disease (PD). Healthy individuals and individuals with PD undergo repeated blood sampling and 31P-MRS brain scans during two 20-day periods, each of which starts with 8 days of daily intake of NR 600 mg×2, or NMN 600 mg×2 (Table 10). • For each 20-day period the testing (i.e., scanning and blood draw) frequency is shown in Table 10, below. The two 20-day periods are 14 days apart to allow for washout of the previous compound. This is a pharmacokinetic (PK) study where 6 healthy individuals (3 male and 3 female): • 1) Received NR 1200 mg daily (600 mg×2) for 8 days, followed by an additional 11 days follow up, while undergoing serial blood and brain NAD-measurement. • 2) Received NMN 1200 mg daily (600 mg×2) for 8 days, followed by an additional 11 days follow up, while undergoing serial blood and brain NAD-measurement. The individuals were mixed, so that in stage-1 three individuals received NR and three individuals received NMN, then in stage-2 they switched (Cross-over design). There were almost three weeks (20 days) of washout between the last dose of the first compound, and before the first dose of the second compounds. In the brain, total NAD (NAD^++NADH) levels were measured by 31P-MRS as previously described^19. […] 19 Brakedal, B. et al. The […] study: A randomized phase I trial of nicotinamide riboside supplementation in Parkinson's disease. Cell Metab 34, 396-407.e6 (2022).

[2] = tested on: Parkinson's Disease (PD); test: NR-SAFE: MDS-UPDRS and Hoehn and Yahr scores; format: in vivo, human
Experimental: At screening for trial entry, candidates underwent physical and neurological examination. Enrolled participants were assessed by physical visits by a movement disorder specialist at baseline (visit 1, V1), day 7 (V4), day 14 (V5), day 21 (V6) and day 28 (V7). At baseline and day 28 participants underwent additional assessment with the Movement Disorder Society Unified Parkinson's disease Rating Scale section I-IV (MDS-UPDRS). At all physical visits an electrocardiogram (ECG), vital parameters (blood pressure, pulse, weight, height) and blood samples were obtained. Additional blood samples were taken on day 3 (V2) and day 5 (V3) to assess safety. The participants were interviewed by telephone consultation by a study nurse on day 3 and day 35 to screen for additional adverse events. Participants were instructed to take their anti-Parkinson drugs as they normally would and no changes were made to anti-Parkinson drug treatment during the trial. Adverse events (AEs) were recorded by the investigating physician. These were then classified by severity according to the Common Terminology Criteria for Adverse Events v5.0 (CTCAE)^13 as either mild (1), moderate (2), severe (3), life-threatening (4) or death (5). The AE relation to the study drug was scored as unrelated (1), unlikely (2), possible (3), probable (4) or definitely (5). 13 Freites-Martinez, A., Santana, N., Arias-Santiago, S. & Viera, A. Using the Common Terminology Criteria for Adverse Events (CTCAE—Version 5.0) to Evaluate the Severity of Adverse Events of Anticancer Therapies. Actas Dermosifiliogr (Engl Ed) 112, 90-92 (2021).

[3] = V1 (baseline), NR 3000 mg daily group, ±sd
[4] = V7 (day 28), NR 3000 mg daily, ±sd

NC(=O)c1ccc[n+]([C@@H]2O[C@H](CO)[C@@H](O)[C@H]2O)c1 [NR, nicotinamide riboside]
brain NAD levels, baseline vs day of maximal blood NAD ([1]; 31P-MRS, day 9 (NR), day 8 (NMN)): significant increase in brain NAD levels | NAD levels at day 19 ([1]; 11 days after last dose): remained elevated | clinical symptoms of PD, measured by MDS-UPDRS ([2]; NR 3000 mg daily, 4 weeks): significantly improved clinical symptoms of PD | Hoehn & Yahr score [2, 3]: 2 ± 0.66 | MDS-UPDRS Part I [2, 3]: 7.8 ± 5.37 | MDS-UPDRS Part II [2, 3]: 9.4 ± 6.25 | MDS-UPDRS Part III [2, 3]: 29.7±12.85 | MDS-UPDRS Part IV [2, 3]: 4.1 ± 4.88 | Total MDS-UPDRS [2, 3]: 51±21.28 | total MDS-UPDRS, subgroup ([2]; V1, subgroup of 8 participants with similar intervals since last levodopa dose, NR 3000 mg daily): 46.62±17.76 | Hoehn & Yahr score [2, 4]: 2.1 ± 0.31 | MDS-UPDRS Part I [2, 4]: 5.6 ± 5.01 | MDS-UPDRS Part II [2, 4]: 8.8 ± 7.58 | MDS-UPDRS Part III [2, 4]: 22.7±7.55 | MDS-UPDRS Part IV [2, 4]: 3.2 ± 3.15 | Total MDS-UPDRS [2, 4]: 40.3±17.1 | total MDS-UPDRS, subgroup ([2]; V7, subgroup of 8 participants with similar intervals since last levodopa dose, NR 3000 mg daily): 35.75±11.74 | total MDS-UPDRS mean change, subgroup ([2]; V7−V1, subgroup of 8 participants with similar intervals since last levodopa dose, NR 3000 mg daily): −10.87±11.15 | Hoehn & Yahr score, Δ ([2]; Δ=V7−V1, NR 3000 mg daily, ±sd): 0.1 ± 0.56 | MDS-UPDRS Part I, Δ ([2]; Δ=V7−V1, NR 3000 mg daily, ±sd): −2.2 ± 3.52 | MDS-UPDRS Part II, Δ ([2]; Δ=V7−V1, NR 3000 mg daily, ±sd): −0.6 ± 2.36 | MDS-UPDRS Part III, Δ ([2]; Δ=V7−V1, NR 3000 mg daily, ±sd): −7 ± 7.98 | MDS-UPDRS Part IV, Δ ([2]; Δ=V7−V1, NR 3000 mg daily, ±sd): −0.9 ± 2.60 | Total MDS-UPDRS, Δ (mean change) ([2]; Δ=V7−V1, NR 3000 mg daily, ±sd): −10.7±9.94
